Legend:
[1] = test system: ABUTH (velvetleaf); assay: Field trial 1 weed control, ABUTH; assay type: in vivo; settings: 0.25 lb/acre, pre-emergence to weeds, 4 WAT
Description: (§1) Four replications were completed per treatment.

[2] = test system: narrowleaf weed species; assay: Field Trial 2 results summary, narrowleaf control; assay type: in vivo; settings: 0.25 lb a.i./acre (0.28 kg/hectare), 4 WAT
Description: as §1

[3] = test system: CHEAL (common lambsquarters); assay: Field trial 1 weed control, CHEAL; assay type: in vivo; settings: 0.25 lb/acre, pre-emergence to weeds, 4 WAT
Description: as §1

[4] = test system: PESGL (pearl millet); assay: Field trial 1 weed control, PESGL; assay type: in vivo; settings: 0.25 lb/acre, pre-emergence to weeds, 4 WAT
Description: as §1

[5] = test system: AMAPG; assay: Field trial 1 weed control, AMAPG; assay type: in vivo, Glyphosate-resistant (GR) AMAPA; settings: 0.25 lb/acre, pre-emergence to weeds, 4 WAT
Description: as §1

[6] = test system: broadleaf weed species; assay: Field Trial 1 results summary, broadleaf control; assay type: in vivo; settings: 0.25 lb a.i./acre (0.28 kg/hectare), 4 WAT
Description: as §1

[7] = test system: SETFA (giant foxtail); assay: Field trial 1 weed control, SETFA; assay type: in vivo; settings: 0.25 lb/acre, pre-emergence to weeds, 4 WAT
Description: as §1

[8] = test system: SORHA (johnsongrass); assay: Field trial 1 weed control, SORHA; assay type: in vivo; settings: 0.25 lb/acre, pre-emergence to weeds, 4 WAT
Description: as §1

[9] = test system: MOLVE (carpetweed); assay: Field trial 1 weed control, MOLVE; assay type: in vivo; settings: 0.25 lb/acre, pre-emergence to weeds, 4 WAT
Description: as §1

[10] = test system: AMAPA; assay: Field trial 1 weed control, AMAPA; assay type: in vivo, palmer amaranth; settings: 0.25 lb/acre, pre-emergence to weeds, 4 WAT
Description: as §1

[11] = test system: SORSS (Sorghum sps.); assay: Field trial 1 weed control, SORSS; assay type: in vivo; settings: 0.25 lb/acre, pre-emergence to weeds, 4 WAT
Description: as §1

[12] = test system: SIDSP (prickly sida); assay: Field trial 1 weed control, SIDSP; assay type: in vivo; settings: 0.25 lb/acre, pre-emergence to weeds, 4 WAT
Description: as §1

[13] = test system: BRASS (Signalgrass sps.); assay: Field trial 1 weed control, BRASS; assay type: in vivo; settings: 0.25 lb/acre, pre-emergence to weeds, 4 WAT
Description: as §1

[14] = test system: DIGSA; assay: Field trial 1 weed control, DIGSA; assay type: in vivo; settings: 0.25 lb/acre, pre-emergence to weeds, 4 WAT
Description: as §1

[15] = test system: EPHSS (Euphorbia sps.); assay: Field trial 1 weed control, EPHSS; assay type: in vivo; settings: 0.25 lb/acre, pre-emergence to weeds, 4 WAT
Description: as §1

[16] = test system: AMBEL (common ragweed); assay: Field trial 1 weed control, AMBEL; assay type: in vivo; settings: 0.25 lb/acre, pre-emergence to weeds, 4 WAT
Description: as §1

[17] = test system: IPOSS (Morningglory sps.); assay: Field trial 1 weed control, IPOSS; assay type: in vivo; settings: 0.25 lb/acre, pre-emergence to weeds, 4 WAT
Description: as §1

[18] = test system: IPOLA; assay: Field trial 1 weed control, IPOLA; assay type: in vivo; settings: 0.25 lb/acre, pre-emergence to weeds, 4 WAT
Description: as §1

[19] = test system: SEBEX; assay: Field trial 1 weed control, SEBEX; settings: 0.25 lb/acre, pre-emergence to weeds, 4 WAT
Description: A series of field trials were conducted at a variety of locations. The soil texture at these sites ranged from silty loam, silty clay loam, to sandy silt loam and sandy loam. The objective of the experiment was to evaluate the weed efficacy and length of residual efficacy of the each standalone herbicide compared to the herbicide combinations. The experiments were conducted in a randomized complete block design. Four replications were completed per treatment. Time of application was pre-emergence to weeds, and treatments were applied using a back-pack or tractor mounted sprayer.
Weed control was determined as a percentage as compared to untreated plants following a standard procedure where visual assessment of plant mortality and growth reduction is made by one specially trained to make such assessments. Across the field trials, the results for 16 broadleaf and 7 narrowleaf weed species were recorded. […] Mean percent control and standard error are calculated by the least squares method.

[20] = test system: HIBTR (venice mallow); assay: Field trial 1 weed control, HIBTR; assay type: in vivo; settings: 0.25 lb/acre, pre-emergence to weeds, 4 WAT
Description: as §1

[21] = test system: narrowleaf weed species; assay: Field Trial 1 results summary, narrowleaf control; assay type: in vivo; settings: 0.25 lb a.i./acre (0.28 kg/hectare), 4 WAT
Description: as §1

[22] = test system: broadleaf weed species; assay: Field Trial 2 results summary, broadleaf control; assay type: in vivo; settings: 0.25 lb a.i./acre (0.28 kg/hectare), 4 WAT
Description: as §1

[23] = test system: AMATA; assay: Field trial 1 weed control, AMATA; assay type: in vivo, waterhemp; settings: 0.25 lb/acre, pre-emergence to weeds, 4 WAT
Description: as §1

[24] = test system: IPOHE; assay: Field trial 1 weed control, IPOHE; assay type: in vivo; settings: 0.25 lb/acre, pre-emergence to weeds, 4 WAT
Description: as §1

[25] = test system: CASOB (sicklepod); assay: Field trial 1 weed control, CASOB; assay type: in vivo; settings: 0.25 lb/acre, pre-emergence to weeds, 4 WAT
Description: as §1

[26] = test system: ECHCF; assay: Field trial 1 weed control, ECHCF; assay type: in vivo; settings: 0.25 lb/acre, pre-emergence to weeds, 4 WAT
Description: as §1

[27] = test system: DIGSS (Digitaria sps.); assay: Field trial 1 weed control, DIGSS; assay type: in vivo; settings: 0.25 lb/acre, pre-emergence to weeds, 4 WAT
Description: as §1

[28] = test system: AMATG; assay: Field trial 1 weed control, AMATG; assay type: in vivo, Glyphosate-resistant (GR) AMATA; settings: 0.25 lb/acre, pre-emergence to weeds, 4 WAT
Description: as §1

[29] = test system: POROL (common purslane); assay: Field trial 1 weed control, POROL; assay type: in vivo; settings: 0.25 lb/acre, pre-emergence to weeds, 4 WAT
Description: as §1

[30] = test system: ECHCG (Echinochola sps.); assay: Field trial 1 weed control, ECHCG; assay type: in vivo; settings: 0.25 lb/acre, pre-emergence to weeds, 4 WAT
Description: as §1

[31] = test system: ACCOS (hophornbeam copperleaf); assay: Field trial 1 weed control, ACCOS; assay type: in vivo; settings: 0.25 lb/acre, pre-emergence to weeds, 4 WAT
Description: as §1

CS(=O)(=O)NC(=O)c1cc(Oc2ccc(C(F)(F)F)cc2Cl)ccc1[N+](=O)[O-] [Fomesafen, fomesafen]
% Control (mean) [1]: 63.7%
Narrowleaf Control [2]: 66.3%
% Control (mean) [3]: 78.3%
% Control (mean) [4]: 100.0%
% Control (mean) [5]: 87.8%
Broadleaf Control [6]: 70%
% Control (mean) [7]: 58.8%
% Control (mean) [8]: 86.8%
% Control (mean) [9]: 90.6%
% Control (mean) [10]: 92.5%
% Control (mean) [11]: 99.8%
% Control (mean) [12]: 98.3%
% Control (mean) [13]: 99.5%
% Control (mean) [14]: 65.3%
% Control (mean) [15]: 100.0%
% Control (mean) [16]: 75.8%
% Control (mean) [17]: 63.1%
% Control (mean) [18]: 27.5%
% Control (mean) [19]: 33.8%
% Control (mean) [20]: 75.0%
Narrowleaf Control [21]: 79%
Broadleaf Control [22]: 63.6%
% Control (mean) [23]: 85.8%
% Control (mean) [24]: 52.5%
% Control (mean) [25]: 46.2%
% Control (mean) [26]: 71.9%
% Control (mean) [27]: 99.0%
% Control (mean) [28]: 57.5%
% Control (mean) [29]: 66.3%
% Control (mean) [30]: 66.8%
% Control (mean) [31]: 93.8%

From patent US12389906B2, “Aqueous herbicidal concentrates” (Monsanto Technology LLC, priority 2014, dated 2025)
